“And” between values parts separate entries of the source, which are not always exact repeats. Equal entries are not always repeated. Inconclusive results are not listed.
System: Lewis lung carcinoma i.m., BDF1 mice, T/C %
Assay: NCI In Vivo Anticancer Drug Screen. Data for tumor model Lewis Lung Carcinoma (intramuscular) in B6D2F1 (BDF1) mice
How it was run: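 Value is the ratio of a treated-group measurement (T) to the matching vehicle-control measurement (C), using either survival or tumour size in mice bearing transplanted tumours.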

With `COc1cc([C@@H]2c3cc4c(cc3C[C@H]3COC(=O)[C@@H]32)OCO4)cc(OC)c1OC` as the compound, how does the T/C (endpoint: mean tumor weight (est.), dose: 5.0 mg/kg/injection, schedule: Q01DX011 (ip), vehicle: saline, higher = larger tumour) read?
Its T/C is 68 % of control.

What about the T/C (endpoint: mean tumor weight (est.), dose: 10.0 mg/kg/injection, schedule: Q01DX011 (ip), vehicle: saline, higher = larger tumour) of the same compound?
The T/C was 54 % of control.

What about the T/C (endpoint: mean tumor weight, dose: 6.25 mg/kg/injection, schedule: Q01DX011 (ip), vehicle: saline, higher = larger tumour) of the same compound?
The T/C was 100 % of control.

What about the T/C (endpoint: mean tumor weight, dose: 12.5 mg/kg/injection, schedule: Q01DX011 (ip), vehicle: saline, higher = larger tumour) of the same compound?
Its T/C is 70 % of control.

And the T/C (endpoint: median survival time, dose: 6.25 mg/kg/injection, schedule: Q01DX011 (ip), vehicle: saline, higher = longer survival)?
Its T/C is 100 % of control.

And the T/C (endpoint: median survival time, dose: 12.5 mg/kg/injection, schedule: Q01DX011 (ip), vehicle: saline, higher = longer survival)?
The T/C was 87 % of control.

`COc1cc2c3c(c4ccc(OC)c(OC)c4c2cc1OC)CN1CCC[C@@H]1C3` was tested. Which T/C (endpoint: mean tumor weight, dose: 1.0 mg/kg/injection, schedule: Q01DX011 (ip), vehicle: Klucel (hydroxypropylcellulose) (HPC), higher = larger tumour) did it give?
The T/C was 88 % of control and 93 % of control.

What about the T/C (endpoint: mean tumor weight, dose: 2.0 mg/kg/injection, schedule: Q01DX011 (ip), vehicle: Klucel (hydroxypropylcellulose) (HPC), higher = larger tumour) of the same compound?
Its T/C is 69 % of control and 77 % of control.

And the T/C (endpoint: mean tumor weight, dose: 4.0 mg/kg/injection, schedule: Q01DX011 (ip), vehicle: Klucel (hydroxypropylcellulose) (HPC), higher = larger tumour)?
The T/C was 85 % of control and 89 % of control.

And the T/C (endpoint: mean tumor weight, dose: 8.0 mg/kg/injection, schedule: Q01DX011 (ip), vehicle: Klucel (hydroxypropylcellulose) (HPC), higher = larger tumour)?
The T/C was 64 % of control and 73 % of control.

And the T/C (endpoint: mean tumor weight, dose: 16.0 mg/kg/injection, schedule: Q01DX011 (ip), vehicle: Klucel (hydroxypropylcellulose) (HPC), higher = larger tumour)?
Its T/C is 41 % of control.

What about the T/C (endpoint: median survival time, dose: 1.0 mg/kg/injection, schedule: Q01DX011 (ip), vehicle: Klucel (hydroxypropylcellulose) (HPC), higher = longer survival) of the same compound?
Its T/C is 102 % of control.

And the T/C (endpoint: median survival time, dose: 2.0 mg/kg/injection, schedule: Q01DX011 (ip), vehicle: Klucel (hydroxypropylcellulose) (HPC), higher = longer survival)?
Its T/C is 86 % of control.

What about the T/C (endpoint: median survival time, dose: 4.0 mg/kg/injection, schedule: Q01DX011 (ip), vehicle: Klucel (hydroxypropylcellulose) (HPC), higher = longer survival) of the same compound?
The T/C was 114 % of control.

And the T/C (endpoint: median survival time, dose: 8.0 mg/kg/injection, schedule: Q01DX011 (ip), vehicle: Klucel (hydroxypropylcellulose) (HPC), higher = longer survival)?
The T/C was 100 % of control.

How did the T/C (endpoint: median survival time, dose: 2.5 mg/kg/injection, schedule: Q01DX009 (ip), vehicle: saline, higher = longer survival) turn out when `O=c1[nH]c(=O)n(C2CC(O)C(CO)O2)cc1C(F)(F)F` (stereo not drawn) was run?
The T/C was 101 % of control.

What about the T/C (endpoint: median survival time, dose: 10.0 mg/kg/injection, schedule: Q01DX009 (ip), vehicle: saline, higher = longer survival) of the same compound?
Its T/C is 93 % of control.

What about the T/C (endpoint: median survival time, dose: 20.0 mg/kg/injection, schedule: Q01DX009 (ip), vehicle: saline, higher = longer survival) of the same compound?
Its T/C is 94 % of control and 101 % of control.

With `O=C(CCBr)N1CCN(C(=O)CCBr)CC1` as the compound, how does the T/C (endpoint: mean tumor weight, dose: 50.0 mg/kg/injection, schedule: Q01DX011 (ip), vehicle: steriod suspending solution, higher = larger tumour) read?
The T/C was 73 % of control.

What about the T/C (endpoint: mean tumor weight, dose: 100.0 mg/kg/injection, schedule: Q01DX011 (ip), vehicle: steriod suspending solution, higher = larger tumour) of the same compound?
The T/C was 73 % of control.

And the T/C (endpoint: mean tumor weight, dose: 200.0 mg/kg/injection, schedule: Q01DX011 (ip), vehicle: steriod suspending solution, higher = larger tumour)?
Its T/C is 37 % of control.

For `Cc1c2ccncc2c(C)c2c1[nH]c1ccccc12`, which T/C (endpoint: median survival time, dose: 1.56 mg/kg/injection, schedule: Q01DX011 (ip), vehicle: water, higher = longer survival) is on record?
The T/C was 100 % of control.

What about the T/C (endpoint: median survival time, dose: 3.12 mg/kg/injection, schedule: Q01DX011 (ip), vehicle: water, higher = longer survival) of the same compound?
Its T/C is 100 % of control.

What about the T/C (endpoint: median survival time, dose: 6.25 mg/kg/injection, schedule: Q01DX011 (ip), vehicle: water, higher = longer survival) of the same compound?
The T/C was 108 % of control.

What does the source list for `COc1ccc2nc3cc(Cl)ccc3c(NCCO)c2c1`?
T/C (endpoint: mean tumor weight (est.), dose: 34.37 mg/kg/injection, schedule: Q01DX011 (ip), vehicle: saline with Tween-80, higher = larger tumour): 19 % of control; T/C (endpoint: mean tumor weight (est.), dose: 68.75 mg/kg/injection, schedule: Q01DX011 (ip), vehicle: saline with Tween-80, higher = larger tumour): 55 % of control; T/C (endpoint: median survival time, dose: 34.36 mg/kg/injection, schedule: Q01DX011 (ip), vehicle: saline with Tween-80, higher = longer survival): 91 % of control; T/C (endpoint: median survival time, dose: 68.75 mg/kg/injection, schedule: Q01DX011 (ip), vehicle: saline with Tween-80, higher = longer survival): 96 % of control

For `O=[N+]([O-])c1cc([N+](=O)[O-])c(Nn2c3ccccc3c3ccccc32)c([N+](=O)[O-])c1`, which T/C (endpoint: median survival time, dose: 12.5 mg/kg/injection, schedule: Q01DX011 (ip), vehicle: saline with Tween-80, higher = longer survival) is on record?
The T/C was 97 % of control.

What about the T/C (endpoint: median survival time, dose: 25.0 mg/kg/injection, schedule: Q01DX011 (ip), vehicle: saline with Tween-80, higher = longer survival) of the same compound?
The T/C was 102 % of control.

What about the T/C (endpoint: median survival time, dose: 50.0 mg/kg/injection, schedule: Q01DX011 (ip), vehicle: saline with Tween-80, higher = longer survival) of the same compound?
Its T/C is 108 % of control.

Which T/C (endpoint: median survival time, dose: 300.0 mg/kg/injection, schedule: Q01DX001 (ip), vehicle: saline, higher = longer survival) does the source give for `NCCCNCCSP(=O)(O)O` here?
The T/C was 102 % of control.

What about the T/C (endpoint: median survival time, dose: 500.0 mg/kg/injection, schedule: Q01DX001 (ip), vehicle: saline, higher = longer survival) of the same compound?
Its T/C is 92 % of control.

Source: PubChem BioAssay AID272 (DTP/NCI, 2004)
